Results as given in publication PMC5324060, “Evolutionary, computational, and biochemical studies of the salicylaldehyde dehydrogenases in the naphthalene degradation pathway” (Scientific Reports, 2017).
Numbering of substitutions follows the chain as printed. Numbers in names are those of the source. Where two headings read alike, the source gives them in different places.

Legend:
SALDan = SALDan (Alteromonas naphthalenivorans, UniProt F5Z5S7); assay: Kinetics assay of wild-type recombinant SALDan (NADH appearance at 340 nm); type: biochemical; details: for App Vmax / App kcat / Km: aldehyde varied at NAD^+ 100 μM, enzyme 0.1 μM, for NAD^+: SAL fixed 50 μM; for Km: NAD^+ 0–500 μM, read-out: App Km
SALDan, sequence (F5Z5S7 entry or part of it): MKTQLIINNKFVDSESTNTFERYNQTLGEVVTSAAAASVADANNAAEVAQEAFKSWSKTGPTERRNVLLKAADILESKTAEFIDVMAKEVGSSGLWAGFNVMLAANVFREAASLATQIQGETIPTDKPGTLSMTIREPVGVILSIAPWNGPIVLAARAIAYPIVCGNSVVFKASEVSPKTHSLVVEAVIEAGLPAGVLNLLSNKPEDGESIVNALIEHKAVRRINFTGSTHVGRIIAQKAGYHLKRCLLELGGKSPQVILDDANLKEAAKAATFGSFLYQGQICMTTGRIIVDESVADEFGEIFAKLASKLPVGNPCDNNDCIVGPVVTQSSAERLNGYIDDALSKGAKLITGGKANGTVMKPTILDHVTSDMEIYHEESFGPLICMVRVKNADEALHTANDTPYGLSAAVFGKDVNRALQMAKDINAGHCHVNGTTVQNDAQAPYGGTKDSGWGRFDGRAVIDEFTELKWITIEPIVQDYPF
Method: (§1) The activity of the purified proteins was determined using SAL as a substrate. A reaction volume of 500 μL was prepared in a microfuge tube containing purified SALDan (0.1 μM), SAL (100 μM), and NAD^+ (100 μM) dissolved in 50 mM HEPES (pH 7.5) containing 150 mM NaCl. The SALDan activity was monitored as the rate of appearance of NADH at 340 nm spectrophotometrically. The specific activity of the enzyme (units.mg^−1.min^−1) was expressed as the amount of enzyme required to produce 1 μM of NADH under the assay conditions. The influence of pH on the activity was determined using the protocol described above, with the exception of replacing the […] buffer with 50 mM sodium acetate (pH 3.0–5.0), 50 mM 2-(N-morpholino)ethanesulfonic acid (pH 5.0–7.5), 50 mM HEPES (pH 8.0–8.5), 50 mM glycine (pH 9.0–10.0), or 50 mM sodium phosphate (pH 11.0)[52]. All assays were performed at the optimal temperature. To determine the influence of temperature on the enzymatic activity, the reactions were performed at 15, 20, 25, 30, 35, 40, and 45 °C, respectively.
(§2) For kinetic studies of aldehydes, the initial velocities of the enzymatic reactions were examined by varying the concentrations of various aromatic as well as aliphatic aldehydes in the presence of NAD^+ (100 μM) and the enzyme (0.1 μM) under optimal conditions. For substrates that absorb at 340 nm, thus interfering with the calculation of the initial rate, their molar coefficients (ε) were calculated as described previously[64] and are presented in Table S1. The apparent kinetic parameters were calculated using the equation: […]
(§3) The apparent kinetic parameters for NAD^+ were determined at a fixed concentration of SAL (50 μM) and a varying concentration of NAD^+ (0–500 μM). The apparent Km and Vmax values were calculated by using the equation: […]
(§4) All the activity data were determined by three separate experiments with at least three technical replicates.

SALDan E175A = target: T1, SALDan E175A (Alteromonas naphthalenivorans, UniProt F5Z5S7, E175A); assay: Kinetics assay of SALDan mutant E175A; type: biochemical; details: for change of apparent Km value / change of kcat/Km (catalytic efficiency): E175A mutant versus wild-type
T1 sequence (F5Z5S7 1-483 E175A): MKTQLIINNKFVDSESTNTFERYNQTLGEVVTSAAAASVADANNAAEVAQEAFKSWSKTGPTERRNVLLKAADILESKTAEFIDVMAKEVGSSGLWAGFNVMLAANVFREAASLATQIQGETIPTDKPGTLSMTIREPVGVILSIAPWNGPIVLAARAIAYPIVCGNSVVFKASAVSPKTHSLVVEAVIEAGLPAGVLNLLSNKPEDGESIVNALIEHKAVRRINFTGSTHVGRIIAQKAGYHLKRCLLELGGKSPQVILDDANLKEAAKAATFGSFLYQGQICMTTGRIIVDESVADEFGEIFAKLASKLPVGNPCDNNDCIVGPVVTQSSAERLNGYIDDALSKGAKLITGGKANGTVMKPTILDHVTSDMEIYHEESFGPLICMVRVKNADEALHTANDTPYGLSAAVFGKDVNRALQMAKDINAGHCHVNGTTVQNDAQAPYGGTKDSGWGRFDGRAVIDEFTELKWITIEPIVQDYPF
Text: (§5) The primers used for the single amino acid mutant were as follows: N149A, forward primer, 5′-ATAGCACCGTGGGCCGGGCCTATTGTATTA-3′; reverse primer, 5′-TAATACAATAGGCCCGGCCCACGGTGCTAT-3′; V153A, forward primer, 5′-AATGGGCCTATTGTATTAGCGGCTCGG-3′; reverse primer, 5′-CCGAGCCGCTAATACAATAGGCCCATT-3′; E175A, forward primer, 5′-[…]-3′, reverse primer, 5′-GTTGGGACAGTCTTCCAGCCC-3′; E175A, forward primer, 5′-ATGCTCCACCAAATTGGGCAC-3′; reverse primer, 5′-TTTAGGACTTACTTCTGAAGCTTTAAA-3′. The PCR was performed using Pfu polymerase, and the cycling parameters were: 95 °C for 5 min (one cycle), 95 °C for 30 s, and 68 °C for 12 min (12 cycles). After amplification, the PCR mixture was digested with DpnI and then transformed into E. coli BL21(DE3) by electroporation. The mutants were confirmed by DNA sequencing.
as §1, §2, §3, §4

SALDan V153A = target: T2, SALDan V153A (Alteromonas naphthalenivorans, UniProt F5Z5S7, V153A); assay: Kinetics assay of SALDan mutant V153A; type: biochemical; details: for effect on the kinetic parameters: V153A mutant versus wild-type
T2 sequence (F5Z5S7 1-483 V153A): T1 sequence (F5Z5S7 1-483 E175A) with V153A, A175E
Text: as §5
(§6) The activity of the purified proteins was determined using SAL as a substrate. […] The SALDan activity was monitored as the rate of appearance of NADH at 340 nm spectrophotometrically. The specific activity of the enzyme (units.mg^−1.min^−1) was expressed as the amount of enzyme required to produce 1 μM of NADH under the assay conditions. The influence of pH on the activity was determined using the protocol described above, with the exception of replacing the Tris-HCl buffer with 50 mM sodium acetate (pH 3.0–5.0), 50 mM 2-(N-morpholino)ethanesulfonic acid (pH 5.0–7.5), 50 mM HEPES (pH 8.0–8.5), 50 mM glycine (pH 9.0–10.0), or 50 mM sodium phosphate (pH 11.0)[52]. […]
as §2

SALDan N149A = target: T3, SALDan N149A (Alteromonas naphthalenivorans, UniProt F5Z5S7, N149A); assay: Kinetics assay of SALDan mutant N149A; type: biochemical
T3 sequence (F5Z5S7 1-483 N149A): T1 sequence (F5Z5S7 1-483 E175A) with N149A, A175E
Text: as §5, with “After amplification, the PCR mixture was digested with DpnI and then transformed into E. coli BL21(DE3) by electroporation. The mutants were confirmed by DNA sequencing.” left out
as §6

[1] = substrate: O=Cc1ccccc1O; assay: Kinetics assay of SALDan mutant E175A; type: biochemical, Alteromonas naphthalenivorans; details: other: E175A mutant; SAL varied at NAD^+ 100 μM; NAD^+ varied at SAL 50 μM
Text: as §5, §1, §2, §3, §4

[2] = substrate: NC(=O)c1ccc[n+]([C@@H]2O[C@H](COP(=O)([O-])OP(=O)(O)OC[C@H]3O[C@@H](n4cnc5c(N)ncnc54)[C@H](O)[C@@H]3O)[C@@H](O)[C@H]2O)c1; assay: Kinetics assay of SALDan mutant E175A; type: biochemical, Alteromonas naphthalenivorans; details: other: E175A mutant; SAL varied at NAD^+ 100 μM; NAD^+ varied at SAL 50 μM
Text: as §5, §1, §2, §3, §4

[3] = substrate: O=Cc1ccccc1O; assay: Kinetics assay of SALDan mutant N149A; type: biochemical, Alteromonas naphthalenivorans; details: other: N149A mutant; SAL varied at NAD^+ 100 μM; NAD^+ varied at SAL 50 μM
Text: as §5, §1, §2, §3, §4

[4] = substrate: NC(=O)c1ccc[n+]([C@@H]2O[C@H](COP(=O)([O-])OP(=O)(O)OC[C@H]3O[C@@H](n4cnc5c(N)ncnc54)[C@H](O)[C@@H]3O)[C@@H](O)[C@H]2O)c1; assay: Kinetics assay of SALDan mutant N149A; type: biochemical, Alteromonas naphthalenivorans; details: other: N149A mutant; SAL varied at NAD^+ 100 μM; NAD^+ varied at SAL 50 μM
Text: as §5, §1, §2, §3, §4

[5] = substrate: O=Cc1ccccc1O; assay: Kinetics assay of SALDan mutant V153A; type: biochemical, Alteromonas naphthalenivorans; details: other: V153A mutant; SAL varied at NAD^+ 100 μM; NAD^+ varied at SAL 50 μM
Text: as §5, §1, §2, §3, §4

[6] = substrate: NC(=O)c1ccc[n+]([C@@H]2O[C@H](COP(=O)([O-])OP(=O)(O)OC[C@H]3O[C@@H](n4cnc5c(N)ncnc54)[C@H](O)[C@@H]3O)[C@@H](O)[C@H]2O)c1; assay: Kinetics assay of SALDan mutant V153A; type: biochemical, Alteromonas naphthalenivorans; details: other: V153A mutant; SAL varied at NAD^+ 100 μM; NAD^+ varied at SAL 50 μM
Text: as §5, §1, §2, §3, §4

[7] = wild-type, “—” means not observed, read-out: App Ki (substrate inhibition)

## O=Cc1ccc(Cl)cc1 [4-Chlorobenzaldehyde]
SALDan; [7]
  Ki: 132 ± 18.9 µM

## O=Cc1ccccc1O [Salicylaldehyde]
SALDan E175A
  Ki: 462 ± 51.4 µM
  change of apparent Km value: increased
  change of kcat/Km (catalytic efficiency): decreased by six times
SALDan
  Ki: 379 ± 45.2 µM
SALDan; wild-type, assayed at 200 μM substrate, substrate inhibition
  activity relative to the maximal velocity: approximately 80%
SALDan; wild-type, velocity versus substrate plot
  substrate concentration at which the highest velocity is achieved: 40 µM
SALDan V153A
  Ki: 428 ± 49.4 µM
  effect on the kinetic parameters: no significant effect
SALDan N149A
  Ki: 447 ± 52.6 µM
SALDan N149A; N149A mutant
  change of catalytic efficiency compared with the wild-type protein: decreased by about three times

## NC(=O)c1ccc[n+]([C@@H]2O[C@H](COP(=O)([O-])OP(=O)(O)OC[C@H]3O[C@@H](n4cnc5c(N)ncnc54)[C@H](O)[C@@H]3O)[C@@H](O)[C@H]2O)c1 [NAD^+, nicotinamide adenine dinucleotide]
SALDan E175A
  change of apparent Km value: increased by about two times
  change of kcat/Km (catalytic efficiency): decreased by four times
SALDan E175A; mutation of Glu175 versus wild-type (Discussion)
  increase of Km: 5 fold
SALDan V153A
  effect on the kinetic parameters: no significant effect

## C=O [Formaldehyde]
SALDan; wild-type
  App Vmax: 3.3 ± 0.7 U/mg
  App kcat: 8.6 ± 2.2 s⁻¹
  Km: 12400 ± 1820 µM

## O=Cc1ccccc1 [Benzaldehyde]
SALDan
  Ki: 563 ± 87.6 µM

## O=Cc1cccc(Cl)c1 [3-Chlorobenzaldehyde]
SALDan; [7]
  Ki: 124 ± 20.1 µM

## O=Cc1ccccc1Cl [2-Chlorobenzaldehyde]
SALDan
  Ki: 356 ± 40.1 µM

## CCCC=O [Butyraldehyde]
SALDan; wild-type
  App Vmax: 5.9 ± 1.0 U/mg
  App kcat: 14.3 ± 2.8 s⁻¹
  Km: 3200 ± 235 µM

## O=Cc1ccc([N+](=O)[O-])cc1 [4-Nitrobenzaldehyde]
SALDan; [7]
  Ki: 266 ± 35.8 µM

## O=Cc1ccc2ccccc2c1 [2-Naphthaldehyde]
SALDan; [7]
  Ki: 249 ± 22.5 µM

B1: SALDan E175A (Alteromonas naphthalenivorans; E175A) (protein)
chain: T1 sequence (F5Z5S7 1-483 E175A)
[1]
  Km: 15.1 ± 2.6 µM
  Vmax: 32.3 µmol/min/mg
  kcat: 82.2 ± 10.1 s⁻¹
  kcat/Km: 5.4e+06 ± 900000 M⁻¹ s⁻¹
[2]
  Km: 105.6 ± 10.3 µM
  Vmax: 60.6 µmol/min/mg
  kcat: 158 ± 17.2 s⁻¹
  kcat/Km: 1.5e+06 ± 400000 M⁻¹ s⁻¹

B2: SALDan N149A (Alteromonas naphthalenivorans; N149A) (protein)
chain: T1 sequence (F5Z5S7 1-483 E175A) with N149A, A175E
[3]
  Km: 9.5 ± 1.3 µM
  Vmax: 38.6 µmol/min/mg
  kcat: 100 ± 16.8 s⁻¹
  kcat/Km: 1.06e+07 ± 1.3e+06 M⁻¹ s⁻¹
[4]
  Km: 52.3 ± 6.1 µM
  Vmax: 83.5 µmol/min/mg
  kcat: 209 ± 25.6 s⁻¹
  kcat/Km: 4e+06 ± 800000 M⁻¹ s⁻¹

B3: SALDan V153A (Alteromonas naphthalenivorans; V153A) (protein)
chain: T1 sequence (F5Z5S7 1-483 E175A) with V153A, A175E
[5]
  Km: 4.6 ± 0.7 µM
  Vmax: 59.5 µmol/min/mg
  kcat: 154 ± 20.4 s⁻¹
  kcat/Km: 3.34e+07 ± 4.7e+06 M⁻¹ s⁻¹
[6]
  Km: 44.9 ± 4.2 µM
  Vmax: 103 µmol/min/mg
  kcat: 254 ± 21.5 s⁻¹
  kcat/Km: 5.7e+06 ± 500000 M⁻¹ s⁻¹
